Data reported in ChEMBL document CHEMBL1144460, “Design, synthesis, and structural analysis of inhibitors of influenza neuraminidase containing a 2,3-disubstituted tetrahydrofuran-5-carboxylic acid core” (Bioorg Med Chem Lett, 2005).

Molecular target: Neuraminidase (Influenza B virus (strain B/Lee/1940), UniProt P03474)
Test: Inhibitory concentration of the compound was determined against neuraminidase B (B/Memphis/3/89) of Influenza virus

Neuraminidase, sequence (P03474 whole entry): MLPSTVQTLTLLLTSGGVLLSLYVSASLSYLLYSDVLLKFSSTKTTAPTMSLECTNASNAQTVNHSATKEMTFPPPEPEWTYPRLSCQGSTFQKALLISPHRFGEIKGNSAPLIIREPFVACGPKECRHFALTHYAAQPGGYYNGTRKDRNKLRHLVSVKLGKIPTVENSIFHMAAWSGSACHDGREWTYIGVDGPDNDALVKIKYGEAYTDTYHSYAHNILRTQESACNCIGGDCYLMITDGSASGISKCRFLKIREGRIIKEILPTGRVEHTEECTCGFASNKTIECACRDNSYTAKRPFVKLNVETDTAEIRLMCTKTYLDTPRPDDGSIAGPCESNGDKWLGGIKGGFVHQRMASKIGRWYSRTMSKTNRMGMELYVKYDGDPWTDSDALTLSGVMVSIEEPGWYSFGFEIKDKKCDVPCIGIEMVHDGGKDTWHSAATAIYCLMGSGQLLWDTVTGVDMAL

**Q.** With `CC(=O)N[C@@H](CC(C)C)[C@@H]1O[C@@H](C(=O)O)C[C@H]1c1c[nH]cn1` as the compound, how does the IC50 read?
**A.** 1000 nM

**Q.** With `COC(=O)[C@@H]1C[C@H](C(=O)O)O[C@H]1[C@H](CC(C)C)NC(C)=O` as the compound, how does the IC50 read?
**A.** 960 nM

**Q.** For `COC(=O)[C@@H]1C[C@H](C(=O)O)N[C@H]1[C@H](CC(C)C)NC(C)=O`, which IC50 is on record?
**A.** 56 nM
